# According to PMC10423278, “Delivered complementation in planta (DCIP) enables measurement of peptide-mediated protein delivery efficiency in plants” (Communications Biology, 2023):
# No end group written: not given here.
# B1: GFP11-AtWUS: recombinant AtWUS with GFP11 tag, without R9 fusion, 38.5 kDa (plasmid 1BR9-AtWUSSTOP) (protein, UniProt Q9SB92 1-292, looked up)
# Protein WUSCHEL: MEPPQHQHHHHQADQESGNNNNNKSGSGGYTCRQTSTRWTPTTEQIKILKELYYNNAIRSPTADQIQKITARLRQFGKIEGKNVFYWFQNHKARERQKKRFNGTNMTTPSSSPNSVMMAANDHYHPLLHHHHGVPMQRPANSVNVKLNQDHHLYHHNKPYPSFNNGNLNHASSGTECGVVNASNGYMSSHVYGSMEQDCSMNYNNVGGGWANMDHHYSSAPYNFFDRAKPLFGLEGHQEEEECGGDAYLEHRRTLPLFPMHGEDHINGGSGAIWKYGQSEVRPCASLELRLN
# modifications: GFP11 tag
# How the values were obtained:
# [1] = tested on: DCIP expressing N. benthamiana leaves; assay: Delivered complementation in planta (DCIP), infiltrated leaf discs, confocal imaging of nuclear sfGFP/mCherry; assay type: cell-based, Nicotiana benthamiana; details: for DCIP delivery signal, statistical significance vs water infiltration control: N = 6, Kruskal–Wallis/Dunn
# Protocol: The DCIP protocol involves transient expression of DCIP in N. benthamiana. 3 d.p.i., leaves are infiltrated with an aqueous solution of cargo that contains the GFP11 tag. Immediately after infiltration, the infiltrated leaves are either left intact or a leaf disc is excised from the infiltrated area and plated on pH 5.7 ½ MS. After a predetermined incubation time, the leaves are imaged on a confocal laser scanning microscope. For quantitative imaging, the resulting images are then automatically analyzed using Cell Profiler[30] for nuclear sfGFP and mCherry fluorescence (Fig. 1a). A detailed methodology is provided in the “Methods” section.
# Three days after agroinfiltration, DCIP-expressing leaves were infiltrated with the treatment solutions. Unless otherwise stated, an 8 mm punch was then excised from the infiltrated area and plated, abaxial side up, onto ½ MS pH 5.7 agar plates. The plates were then left to incubate under ambient conditions for 4–5 h before imaging. For cold temperature treatment, after infiltration with ice-cold solutions of R9-GFP11 and disc excision, the leaf discs were plated onto ice-cold agar and immediately transferred to a 4 °C refrigerator for incubation. After incubation, the agar plates with leaf discs were kept on ice until the moment of imaging. For in situ incubation, leaves were simply infiltrated and the plant was returned to the growing chamber for incubation. All peptides were dissolved in sterile water and all recombinant proteins were dissolved in 10 mM Tris pH 7.4, 10 mM NaCl for infiltration.
# Excised leaf discs were imaged on a Zeiss LSM880 laser scanning confocal microscope. Images for semi-quantitative analysis were collected using a ×20/1.0NA Plan-apochromat water immersion objective and larger field-of-views were collected using a ×5 objective. Leaf discs were mounted by sandwiching a droplet of water between the leaf disc and a #1.5 cover glass. BFP, sfGFP, mCherry, and chloroplast autofluorescence images were acquired by excitation with a 405, 488, 561, and 635 nm laser, respectively. The emission bands collected for BFP, sfGFP, mCherry, and autofluorescence were 410–529, 493–550, 578–645, and 652–728 nm, respectively. All images were collected such that the aperture was set to 1 Airy-unit in the mCherry channel. Images and profile plots were prepared for publication using Zen Blue software. Profile plots were smoothed by taking a moving window of three measurements and normalized to the maximum smoothed intensity for each color. For quantification experiments, z-stacks were acquired with the imaging depth set to capture the epidermal layer down to the point where mCherry nuclei could no longer be detected. z-stacks from four fields of view were acquired for every treatment condition. Quantitative image analysis and downstream processing was performed using Cell Profiler 3.0. […] Cell Profiler was then used to quantify the number, mCherry intensity, GFP intensity, and red (mCherry)/green (sfGFP) ratio of the projected nuclei.
# Data obtained from Cell Profiler was processed using a script written in Python 3.9. Using the Cell Profiler data, GFP positive nuclei were counted using a Python script by setting a threshold defined as a one-tailed 99% confidence interval above the mean green/red ratio in the untreated control or water infiltration control of each experiment. […]
# f-actin = assay: cytoDCIP delivery-mediated actin labeling (Lifeact/f-actin scaffolding); assay type: cell-based, Nicotiana benthamiana
# Description: After confirming that recombinant proteins could be efficiently delivered into plant cells with R9 CPP, we asked if delivered proteins could subsequently mediate protein–protein interactions. Being able to mediate protein–protein interactions using delivered proteins could enable new technologies that alter plant physiology. Therefore, in a proof-of-concept experiment, we delivered the 1.9 kDa f-actin binding peptide, Lifeact[50], tagged with GFP11 and R9 (Fig. 6a) into cytoDCIP expressing N. benthamiana leaves. In this scheme, when Lifeact is internalized, GFP11 acts as a scaffold to tether cytoDCIP to actin filaments through the Lifeact/f-Actin interaction. […]
# (§1) Excised leaf discs were imaged on a Zeiss LSM880 laser scanning confocal microscope. Images for semi-quantitative analysis were collected using a ×20/1.0NA Plan-apochromat water immersion objective and larger field-of-views were collected using a ×5 objective. […] For quantification experiments, z-stacks were acquired with the imaging depth set to capture the epidermal layer down to the point where mCherry nuclei could no longer be detected. z-stacks from four fields of view were acquired for every treatment condition. Quantitative image analysis and downstream processing was performed using Cell Profiler 3.0. […]
# [2] = tested on: cytoDCIP-expressing N. benthamiana leaf; assay: cytoDCIP nuclear localization of delivered AtWUS; assay type: cell-based, Nicotiana benthamiana; details: 140 µM, leaf disc, 6 h
# Description: After establishing the feasibility of using DCIP to assess recombinant protein delivery in intact leaves, we sought to examine R9-mediated delivery of the Arabidopsis plant morphogenic transcription factor, WUSCHEL (AtWUS), in N. benthamiana leaves. AtWUS was chosen as a candidate cargo due to its applications for somatic embryogenesis in plants and its high degree of molecular characterization[54],[55]. […] Because AtWUS is a transcription factor, we also expected to see GFP11-AtWUS-R9 localize to the nucleus without the SV40 NLS of DCIP. To test this, we infiltrated a cytoDCIP-expressing N. benthamiana leaf with 140 µM GFP11-AtWUS-R9. If the delivered AtWUS has active NLS activity, we would expect green fluorescence localized to only the nucleus and excess, uncomplemented mCherry-GFP1-10 to remain in the cytosol. […]
# as §1, with “condition.” for “condition. Quantitative image analysis and downstream processing was performed using Cell Profiler 3.0.”
# downstream AtWUS genes = assay: RT-qPCR of direct targets of AtWUS in treated seedlings; assay type: in vivo, Arabidopsis thaliana; details: 24 h
# Protocol: The previous results in N. benthamiana motivated us to determine whether or not the delivered AtWUS is transcriptionally active. We treated 12-day-old Arabidopsis seedlings for 24 h with 1 µM GFP11-AtWUS-R9. A. thaliana was chosen as a model species due to the well-characterized AtWUS pathway in A. thaliana. Seedlings were subsequently harvested and subjected to RT-qPCR analysis for six known direct targets of AtWUS (Fig. 7d). […] Ectopic expression of AtWUS downregulates the expression of cell identity markers ARR6, AS2, KAN1/2 and YAB3 by binding directly to their promoters[56],[57], and upregulates the expression of its own negative regulator, CLV3[58]. […] In this second experiment, 3 µM of protein was also used due to apparent batch-to-batch variation of activity and lower purity of the recombinant protein (Supplemental Fig. S12b, c).
# Arabidopsis (Col-0) seedlings were grown in 12-well culture plates with 8–10 seedlings per well in 1 mL of 1x MS media supplemented with 0.5% sucrose and 2.5 mM MES, pH 5.7. Seeds were sterilized by washing in 70% ethanol for 30 s followed by a 15-min incubation in 50% bleach supplemented with 0.5% Tween-20 and rinsed 5x with DI water. Sterilized seeds were stratified in plates at 4 °C for 3 days after plating. Seedlings were grown at 22 °C under 16-h photoperiods for 12 days. To treat seedlings, the liquid media in each well was replaced with control and WUSCHEL treatments. Control wells were refreshed with 1 mL of MS growth media. WUSCHEL proteins were prepared for use by dialysis into 10 mM MES pH 5.7 for 2 h before dilution to their final concentration. Treatment wells were refreshed with 1 mL of 1 or 3 μM of protein (R9-GFP11, GFP11-AtWUS-R9, GFP11-AtWUS) dissolved in MS growth media. […]
# Total RNA was extracted from Arabidopsis seedlings using an RNeasy Plant Mini Kit (Qiagen). […] Relative gene expression was determined using the ddCt method[80] using SAND1 as the reference gene. Relative gene expression was determined from four biological pools each containing 8–10 seedlings. […]
molecule,measurement,setting,value
CC[C@H](C)[C@H](NC(=O)CNC(=O)[C@H](C)NC(=O)[C@H](C)NC(=O)[C@H](CC(N)=O)NC(=O)[C@@H](NC(=O)[C@H](Cc1ccc(O)cc1)NC(=O)[C@H](CCC(=O)O)NC(=O)[C@H](Cc1c[nH]cn1)NC(=O)[C@H](CC(C)C)NC(=O)[C@@H](NC(=O)[C@H](CCSC)NC(=O)[C@H](Cc1c[nH]cn1)NC(=O)[C@H](CC(=O)O)NC(=O)[C@H](CCCNC(=N)N)NC(=O)[C@H](CO)NC(=O)CNC(=O)[C@H](CO)NC(=O)CNC(=O)[C@H](CC(C)C)NC(=O)[C@H](Cc1ccc(O)cc1)NC(=O)[C@H](CCCCN)NC(=O)[C@H](CC(C)C)NC(=O)[C@@H](NC(=O)[C@H](CCCCN)NC(=O)[C@H](CCCCN)NC(=O)[C@H](Cc1ccccc1)NC(=O)[C@H](CC(C)C)NC(=O)[C@H](CCCCN)NC(=O)[C@@H](N)CCCCN)[C@@H](C)CC)C(C)C)C(C)C)C(=O)N[C@H](C(=O)O)[C@@H](C)O [BP100-GFP11],sfGFP complementation observed by confocal imaging (qualitative),"[1]; 100 μM peptide, 4–5 h post-infiltration",rare instances of successful delivery
same,"DCIP delivery signal, statistical significance vs water infiltration control","[1]; 100 μM, 4–5 h",no statistically significant signal
"C/C1=C/C(=O)O[C@@H]2C[C@@H](CC[C@H](C)/C=C\CC1)O[C@@](O)([C@@H]1CSC(=O)N1)C2 [LatB, latrunculin B, reference compound]",actin filaments on cotreatment with LatB,"f-actin; 25 µM LatB cotreated with GFP11-Lifeact-R9, 6 h",no actin filaments were observed
MGSSHHHHHHENLYFQSNARDHMVLHEYVNAAGITGGGGSGGGGSYFQSNAMGVADLIKKFESISKEEGIGSGSNGNSGSVSRRRRRRRRR* [GFP11-Lifeact-R9],localization of sfGFP/mCherry signal in cytoDCIP leaves (actin filament labeling),"f-actin; 120 µM, leaf discs, 6 h, pavement cells",robust labeling of actin filaments
RDHMVLHEYVNAAGIT [GFP11],"DCIP delivery signal, statistical significance vs water infiltration control","[1]; 100 μM, 4–5 h",no statistically significant signal
RKKRRQRRRGSGSRDHMVLHEYVNAAGIT [TAT-GFP11],delivery efficiencies (percent GFP-positive nuclei),"[1]; 100 μM CPP-GFP11 conjugate, 4–5 h, N = 6",30–80%
same,delivery efficiency normalized to R9 CPP,"[1]; 100 μM, 4–5 h, N = 6",0.87 times
B1,nuclear localization of delivered protein in cytoDCIP leaf,[2],possessed nuclear localization activity
same,CLV3 expression in GFP11-AtWUS-treated plants,downstream AtWUS genes; 3 µM,CLV3 downregulation
same,"tested AtWUS target genes regulated in an expected manner, first experimental repeat","downstream AtWUS genes; 3 µM, six genes, N = 4",3/6
same,"tested AtWUS target genes regulated in an expected manner, second experimental repeat","downstream AtWUS genes; six genes, N = 4, repeat",1/6
